The results in this text go back to patent US4072675A, “N-phenyl amidines” (Mead Johnson & Company, priority 1975, dated 1978).

Assay [1] can be described thus: Diuretic test in rats according to the Lipschitz method (urine volume and electrolyte excretion vs urea control). Format: in vivo. The note with it: rat. The method, then: The compounds of the present invention are evaluated as diuretics according to the method of W. L. Lipschitz, et al., J. Pharmacol. Expt. Therap., 79, 97 (1943). In this method, groups of 8 rats are fasted 18 hours prior to the experiment. A control group is hydrated orally with 25 ml. per kilogram of body weight of isotonic saline solution which is also the vehicle used for dosing the test compound. One control group received a dose of 960 mg./kg. of body weight of urea. Animals of other groups are tested with various doses of the test compound. Immediately after treatment, the animals are placed in metabolism cages (two rats of the same group per cage) and maintained without food or water for 5 hours. The volume of urine excreted by each pair is determined after this period and the pooled urine is analyzed for sodium, potassium, and chloride ions. […] In this test, the N-phenyl amidines of Formula I were orally administered in doses ranging from 2.7 to 25 mg./kg. of body weight.
One of the disadvantages associated with diuretics such as the thiazides is believed to stem largely from increased excretion of potassium ion concomitant with water elimination. […] As stated hereinabove,excessive excretion of potassium ion may cause an electrolyte imbalance resulting in adverse side effects.

For assay [2], the system named is aconitine induced atrial arrhythmia. Kind of assay: In vivo dog arrhythmia test (aconitine induced atrial arrhythmia). The note with it: Canis lupus familiaris, iv, read-out: effective dose restoring normal cardiac rhythm. An excerpt: In the in vivo dog arrhythmia test, the chest of an anesthetized dog is opened in the mid-line and the right and left atrial appendages exposed to small slits in the pericardium. Bypolar recording electrodes are affixed to atrial surfaces and a 4 × 4 mm. piece of clean cloth is fixed to surface of the right auricular appendage. Control recordings are made of various heart functions including femoral arterial blood pressure and right and left atrail electrograms. Atrial arrhythmia is then induced by placing 3-5 drops of a solution of aconitine on the cloth which is fixed to the right atrium. An irregular, rapid atrial rate is produced within 1 minute. Throughout the test, fresh aconitine (2-3 drops) is placed on the cloth at 10 minute intervals. The test compound is administered intravenously 5 minutes after the initial establishment of the arrhythmia and infusion continued at a slow rate until an effective dose which re-establishes normal rhythm of the heart is obtained.
The Formula Ia N-phenylamidines are effective both orally and parenterally as antiarrhythmic agents. For instance, intravenous administration of about 2.5 mg./kg. of 3,4,5,6-tetrahydro-7-[(N-phenyl)-phenethylamino]-2H-azepine or 4,5,6,7,8,9-hexahydro-2-(N-phenylphenethyl-amino)-3H-azonine effectively restores normal cardiac rhythm to induced arrhythmia in the dog.

The test system of assay [3] is chloroform induced arrhythmia. Briefly: Chloroform induced arrhythmia in the mouse. The format is in vivo. The note with it: ip, intraperitoneal, read-out: ED50 preventing chloroform induced arrhythmia. An excerpt: Another in vivo test indicative of antiarrhythmic activity is chloroform induced arrhythmia in the mouse.
In the next assay the test system is rabbit ileum. Kind of assay: In vitro smooth muscle relaxant test, isolated rabbit ileum with spasmogen. The format is cell-based. The note with it: from EC50 vs spasmogen, papaverine = reference. The procedure:
Smooth muscle relaxant activity of the compounds of the present invention can be measured in standard in vitro and in vivo pharmacological tests. One such in vitro test is carried out essentially as follows. A segment of rabbit ileum is suspended and oxygenated in Tyrode's solution and affixed to a tension transducer for electronic recording of isometric contractions. After controlled responses to a standard dose of a spasmogen such as barium chloride (0.25 mg./ml.), acetyl choline chloride (1.0 mcg./ml.), etc., are established, the test compound is added and the response to the spasmogen, in the presence of the test agent, again determined. Test compound effect is measured as the percentage reduction in the response to the spasmogen, in the presence of the test compound, from the mean control response. A minimum of four trials is obtained with each of two to five different concentrations of the test compound. The data are expressed in log dose response curves and estimates made therefrom of the EC50 (concentration causing 50% reduction in response of the tissue to the spasmogen). In general, the effect of compounds identified by Formula I on the rabbit ileum is similar to papaverine, a well-known smooth muscle relaxant. […]

The test system of the next assay is intestinal smooth muscle. Kind of assay: In vivo intestinal smooth muscle relaxation in anesthetized cat (intraduodenal pressure). The method, then:
Intestinal smooth muscle relaxant activity can also be measured in an in vivo cat preparation. In this test, a balloon is inserted through a small incision in the stomach of an anesthetized cat to a point about 10 cm. down the duodenum and intralumenal intestinal pressure changes recorded. A solution or suspension of the test agent is administered intraduodenally about 2 cm. beyond the balloon placed for recording intraduodenal pressure in volume doses of 1 ml./kg. body weight. This means of administration mimics oral administration. Various doses of the test agent are administered and an inhibitory dose which supresses intestinal […] by 50% of maximum is determined. This value is designated the ID50. N-benzyl-N'-tert-butyl-N-phenylforamidine hydrochloride compared to papaverine is about 1.5 times as potent in this test.

The next assay has as its system rabbit atrium. Kind of assay: Isolated rabbit atrium test (refractory period). The format is cell-based. The note with it: Oryctolagus cuniculus, read-out: EC50 (50% of maximal increase in refractory period). The method, then: In the rabbit atrium test, the left atrium is placed in Chenoweth's solution warmed to 30° C. and irrigated with 95% oxygen:5% carbon dioxide. The lower end of the atrium is attached to a small hook fixed in the bath and the upper end is connected to a transducer to record contractile activity. The atrium is electrically stimulated at a basic rate of 30 per minute employing square wave pulses of 10 millisecond duration at 1.2-1.5 times threshold voltage. The test compound is introduced into the bath and the test repeated after a 5 minute interval. A dose response relationship is obtained by additional doses of the test compound. Potency of a test agent can be expressed as the effective concentration which produces 50% of the maximal increase in the measured refractory period of the steady state atrium. This value is designated the EC50.

Assay [4] concerns guinea pig isolated tracheal spiral. Briefly: In vitro guinea pig isolated tracheal spiral test. The format is cell-based. The method, then:
Another in vitro test measuring the smooth muscle relaxant properties of the compounds of the present invention employs the guinea pig isolated tracheal spiral and is carried out essentially as described by Lish, et al., J. Pharmacol. Exp. Therap., 129, 191 (1960). As illustrative of the activity of the compounds of the present invention in this test there can be mentioned 3-[(N-1-pyrrolin-2-yl-p-anisidino)methyl]indole hydrochloride which is about 1.7 times as potent as aminophylline.

Assay [5] deals with histamine challenged guinea pig. Kind of assay: Histamine challenged guinea pig aerosol test (bronchodilation). Format: in vivo. The note with it: oral. An excerpt: As a bronchodilating agent, 3-[(N-1-pyrrolin-2-yl-p-anisidino)methyl]indolehydrochloride is of particular interest. In the histamine challenged guinea pig aerosol test, refer to Turner, Screening Methods In Pharmacology, page 214 (1965) (Academic Press, New York), this compound is about 1.4 times as potent as aminophylline when administered orally.

The mark [6] stands for this setting: rabbit left atrium, 30° C., Chenoweth's solution.

In brackets after ≈: the same amount, converted by molar mass. Counter-ions that a name gives are not always drawn. Like-named read-outs stand apart in the source and are kept apart here.

Regarding `c1ccc(N=C2CCCN2)cc1` [2-phenyliminopyrrolidine, reference compound], in assay [1] (Lipschitz method), the “diuretic activity (in words)” value was “substantially inactive as a diuretic agent”.
On to `c1ccc(CCN(C2=NCCCCC2)c2ccccc2)cc1` [3,4,5,6-tetrahydro-7-[(N-phenyl)phenethylamino]-2H-azepine], for which the minimal effective dose in assay [2] is roughly 2.5 mg/kg. For the same compound, the ED50 in assay [3] was 11.5 mg/kg.
Consider `c1ccc(CCN(C2=NCCCCCCC2)c2ccccc2)cc1` [4,5,6,7,8,9-hexahydro-2-(N-phenylphenethylamino)-3H-azonine], for which the minimal effective dose in assay [2] was roughly 2.5 mg/kg.
Regarding `CC(C)(C)N=CN(CCc1ccccc1)c1ccccc1.Cl` [Example 1, N'-tert-Butyl-N-phenethyl-N-phenylformamidine hydrochloride], the “smooth muscle relaxant potency relative to papaverine (times as potent)” value in the assay on rabbit ileum stood at 5.
As to `CC(C)(C)N=CN(Cc1ccccc1)c1ccccc1.Cl` [Example 2, N-Benzyl-N'-tert.-butyl-N-phenylformamidine hydrochloride], the “potency relative to papaverine (times as potent, ID50)” value with intestinal smooth muscle is reported as “about 1.5”.
Consider `CC1CCC(N(Cc2ccccc2)c2ccccc2)=N1.Cl` (stereo not shown) [Example 5, 5-Methyl-2-(N-phenylbenzylamino)-1-pyrroline hydrochloride], for which the “ratio of sodium ion excretion to potassium ion excretion” value in assay [1] (oral, 6.25 mg./kg.) is reported as 2.7. For the same compound, in assay [1] (oral, 6.25 mg./kg., 5 hours), the “ratio for potassium ion excretion vs urea control group” value is 0.75, the “ratio for sodium ion excretion vs urea control group” value was 2.03 and the “ratio for volume excretion vs urea control group” value is listed as 2.32.
As to `Cl.c1ccc(CCN(C2=NCCCCC2)c2ccccc2)cc1` [Example 10, 3,4,5,6-Tetrahydro-7-[(N-phenyl)phenethylamino]-2H-azepine hydrochloride], the concentration for a half-maximal effect (EC50) in the assay with rabbit atrium (setting [6]) is 7.2 µg/mL.
Turning to `COc1ccc(N(Cc2c[nH]c3ccccc23)C2=NCCC2)cc1` [Example 34, 3-[N-1-Pyrrolin-2-yl-p-anisidino)methyl]indole hydrochloride], the “potency relative to aminophylline (times as potent)” value in assay [4] is “about 1.7”. Moreover, the “bronchodilating potency relative to aminophylline (times as potent)” value in assay [5] is on record as “about 1.4”.
Turning to `CC1CCC(N(Cc2c[nH]c3ccccc23)c2ccccc2)=N1.Cl` (stereo not shown) [Example 37, 3-[[N-(5-methyl-1-pyrrolin-2yl)anilino]methyl]indole hydrochloride], the “smooth muscle relaxant potency relative to papaverine (times as potent)” value in the assay on rabbit ileum is listed as 1.4.
For `c1ccc(CCN(C2=NCCCCCC2)c2ccccc2)cc1` [Example 60, 3,4,5,6,7,8-Hexahydro-2-(N-phenylphenethylamino)azocine hydrochloride hemihydrate], the 50% effective concentration (EC50) in the assay on rabbit atrium (setting [6]) was 2.5 µg/mL.
With `Cl.c1ccc(CCN(C2=NCCCCCCC2)c2ccccc2)cc1` [Example 61, 4,5,6,7,8,9-Hexahydro-2-(N-phenylphenethylamino)-3H-azonine Hydrochloride], the concentration for a half-maximal effect (EC50) in the assay with rabbit atrium (setting [6]) came out at 1.9 µg/mL.
On to `NS(=O)(=O)c1cc2c(cc1Cl)NCNS2(=O)=O` [Hydrochlorothiazide, reference compound], for which the “ratio of sodium ion excretion to potassium ion excretion” value in assay [1] (oral, 6.25 mg./kg.) is 1.65.
With `C=C[C@H]1C[N@@]2CC[C@H]1C[C@@H]2[C@@H](O)c1ccnc2ccc(OC)cc12` [Quinidine, reference compound], the minimal effective dose in assay [2] was 6 mg/kg. The EC50 with rabbit atrium was found to be 18 µg/mL (≈ 55.5 µM).
